Earlier results on 1 substance are cited in patent US20110021470A1, “METHODS FOR TREATING CANCER COMPRISING THE ADMINISTRATION OF A VITAMIN D COMPOUND AND AN ADDITIONAL THERAPEUTIC AGENT, AND COMPOSITIONS CONTAINING THE SAME” (Cougar Biotechnology, Inc., priority 2006, published 2011).

For data set [1] the following is noted: in vivo.
The test system of data set [2] is cell growth and differentiation.
For data set [3] the following is noted: in vivo. The source holds these as a separate data set.
The conditions of data set [4]: oral lipid formulations (medium chain triglyceride, long chain triglyceride) compared with a formulation containing propylene glycol.

In the case of “1(S),3(R)-dihydroxy-20(R)-(5′-ethyl-5′-hydroxyhepta-1′(E),3′(E)-dien-1′-yl)-9,10-secopregna-5(Z),7(E),-10(19)-triene [Seocalcitol]”, the biological half-life result in data set [1] is reported as “suitable for systematic use”. In addition, the anti-proliferative activity entry in data set [2] is listed as “strong”. In addition, in data set [2] (in vitro and in vivo, versus 1α,25-dihydroxycholecalciferol), the “potency in regulation of cell growth and differentiation relative to 1α,25-dihydroxycholecalciferol” value was 50-200 times more potent. In addition, the calcemic activity result in data set [3] is on record as “low”. In addition, the “calcemic activity relative to 1α,25-dihydroxycholecalciferol” value in data set [3] (versus 1α,25-dihydroxycholecalciferol) was “approximately 50 % weaker”. Moreover, the bioavailability of seocalcitol result in data set [4] is “twofold higher”.
